Patent publication US6528500B1, “Azole derivatives or salts thereof” (SSP Co., Ltd., priority 1999, dated 2003)
Values after ≈ are worked out from the molar mass of the structure shown. Where a name gives a salt, the structure may show the parent alone.

Experiments:
[1] = Aqueous solubility comparison; format: physicochemical; conditions: water (aqueous solubility), parent compound in the form of a free base
Description: The compound obtained in Example 1 was compared in aqueous solubility with a parent (non-phosphorylated) compound (in the form of a free base).

C. albicans IFM 40009 = test: In vivo activities against the Candida albicans murine model; conditions: male ICR mice, C. albicans IFM 40009 3×10^6 cells/mouse i.v.; 1 mg/kg intravenously once daily for 4 days; observed 14 days; ***P < 0.001 relative to Infection control
Procedure: Four-week-old male ICR mice were fasted for 6 hours. The mice were inoculated at 3×10^6 cells/mouse of C. albicans IFM 40009 into the tail vein. The infection control group and the drug-treated group consisted of 10 and 5 animals, respectively. The compound of Example 1 and the parent compound were dissolved in 20% polyethylene glycol 200. The drug solutions were intravenously administered at the dose of 1 mg/kg once daily for 4 consecutive days after infection. […] Paired comparison of duration of survival between the infection control and drug-treated groups were analyzed by Log-Rank test.

melting point | Compound | solubility [1] | Average surviving days (C. albicans IFM 40009)
216 to 218 °C | CS(=O)(=O)C(F)(F)C(Cn1cncn1)(OP(=O)(O)O)c1ccc(F)cc1F (centres unmarked) (as salt: phosphate) | – | –
– | CCS(=O)(=O)C(F)(F)C(Cn1cncn1)(OP(=O)(O)O)c1ccc(F)cc1F (single isomer, unassigned; (+)) [Example 1, (+)-1-(2,4-difluorophenyl)-2-(ethylsulfonyl)-2,2-difluoro-1-(1H-1,2,4-triazole-1-ylmethyl)ethyl Dihydrogen Phosphate] | 4800 µg/mL | 14.0*** days
– | CCS(=O)(=O)C(F)(F)C(O)(Cn1cncn1)c1ccc(F)cc1F (single isomer, unassigned; (-)) [Parent compound, (−)-2-(2,4-difluorophenyl)-1-(ethylsulfonyl)-1,1-difluoro-3-(1H-1,2,4-triazol-1-yl)-2-propanol, reference compound] | 500 µg/mL (≈ 1360 µM) | 14.0*** days
